Results from paper PMC8512560, “Design, Synthesis, and Antipoliferative Activities of Novel Substituted Imidazole-Thione Linked Benzotriazole Derivatives” (Molecules, 2021).
“And” between values parts separate entries of the source, which are not always exact repeats. Equal entries are not always repeated.

What was measured:
HL-60 cells [1] = assay: Cell cycle analysis by PI flow cytometry; assay type: cell-based, human; settings: 50 nM
Protocol: HL-60 cells were seeded at a density of 1 × 10^5 cells/well in 6-well plates and treated with CA-4 and compound BI9 (1 µM) for 48 and 72 h. The cells were collected by trypsinization and centrifuged at 800× g for 15 min. Cells were washed twice with ice-cold PBS and fixed in ice-cold 70% ethanol overnight at −20 °C. Fixed cells were centrifuged at 800× g for 15 min and stained with 50 μg/mL of PI, containing 50 μg/mL of DNase-free RNase A, at 37 °C for 30 min. The DNA content of cells (10,000 cells/experimental group) was analysed by flow cytometer at 488 nm using a FACSCalibur flow cytometer (BD Biosciences, San Jose, CA, USA) and all data were recorded and analysed using the CellQuest Software (Becton-Dickinson).

[2] = system: MCF-7 human breast cancer cell line; assay: MTT viability assay, MCF-7; assay type: cell-based; settings: Homo sapiens, MCF7, 72 h, mean ± SD of three independent experiments, read-out: Antiproliferative Activities IC50, MCF-7
Protocol: (§1) All the human tumour cell lines MCF-7, HL-60, HCT-116, and HUVEC were cultured in Dulbecco’s Modified Eagle’s Medium (DMEM) with 10% fetal bovine serum, 2 mM L-glutamine and 100 µg/mL penicillin/streptomycin. Cells were maintained at 37 °C in 5% CO2 in a humidified incubator. All cells were sub-cultured three times/week by trypsinization using TrypLE Express (1X).
(§2) The Benzotriazole compounds were evaluated for antiproliferative effect using the MTT viability assay of various cancer cell lines (MCF-7, HCT-116 and HL-60) and the normal human umbilical vein endothelial cell line (HUVEC) to calculate the relative IC50 values for each compound. Cells were seeded in triplicate in 96-well plates at a density of 10 × 10^3 cells/mL in a total volume of 200 µL per well. 0.1% of DMSO was used as a vehicle control. After this time, they were treated with 2 µL test compound which had been pre-prepared as stock solutions in ethanol to furnish the concentration range of study, 10 nM to 100 µM, and re-incubated for a further 72 h. The culture medium was then removed, and the cells washed with 100 µL phosphate buffered saline (PBS) and 50 µL MTT added, to reach a final concentration of 1 mg/mL MTT added. Cells were incubated for 2 h in darkness at 37 °C. At this point solubilisation was begun through the addition of […] DMSO and the cells maintained at room temperature in darkness for 20 min to ensure thorough colour diffusion before reading the absorbance. Plates were incubated for 72 h at 37 °C + 5% CO2. The MTT (5 mg/mL in PBS) was added and incubated for another 4 h, and the optical density was detected with a microplate reader at 570 nm. Results were expressed as percentage viability relative to vehicle control (100%). Dose response curves were plotted and IC50 values (concentration of drug resulting in 50% reduction in cell survival) were obtained using the commercial software package Prism (GraphPad Software, Inc., La Jolla, CA, USA). All the experiments were repeated in at least three independent experiments.

[3] = system: HUVEC human umbilical vein endothelial cell line; assay: MTT viability assay, normal HUVEC cells; assay type: cell-based; settings: 72 h, mean ± SD of three independent experiments
Protocol: as §1, §2

[4] = system: colchicine binding site of tubulin; assay: Colchicine site competitive binding assay ([3H]colchicine); settings: tubulin and colchicine at 1 and 5 µM
Protocol: The affinity of Benzotriazole compounds to colchicine binding site was determined using a Colchicine Site Competitive Assay kit CytoDYNAMIX Screen15 (Cytoskeleton, Inc., Denver, CO, USA) using the standard protocol of the manufacturer to determine Ki values (μM). Biotin-labelled tubulin ([…]) and the test compounds (positive control colchicine, negative control vinblastine, G-1, fluorescent G-1, or 2-ME) in a 96-well plate (final volume: 100 μL). After incubating for 2 h at 37 °C with gentle shaking, streptavidin-labelled yttrium SPA beads (80 μg in 20 μL reaction buffer, PerkinElmer, Waltham, MA) were added to each well and incubated for 30 min at 4 °C. The plates were then read on a scintillation counter (Packard Instrument, Topcount Microplate Reader) and the percentage of inhibition was calculated.

HL-60 cells [5] = assay: Annexin V/PI apoptotic assay by flow cytometry; assay type: cell-based, human; settings: BI9 1 µM, CA-4 concentration not given, control 1.6%
Protocol: Apoptotic cell death was detected by flow cytometry using Annexin V and propidium iodide (PI). HL-60 Cells were seeded in 6 well plated at density of 1 × 10^5 cells/mL and treated with vehicle (0.1% (v/v) EtOH), positive control (CA-4) or compound BI9 (1 µM) for 48 and 72 h. Cells were then harvested and prepared for flow cytometric analysis. Cells were washed in 1X binding buffer ([…] binding buffer: 0.1M HEPES, pH 7.4; 1.4 M NaCl; 25 mM CaCl2 diluted in dH2O) and incubated in the dark for 30 min on ice in Annexin V-containing binding buffer [1:100]. Cells were then washed once in binding buffer and then re-suspended in PI-containing binding buffer [1:1000]. Samples were analysed immediately using the BD accuri flow cytometer and prism software for analysis the data. Four populations are produced during the assay Annexin V and PI negative (Q4, healthy cells), Annexin V positive and PI negative (Q3, early apoptosis), Annexin V and PI positive (Q2, late apoptosis) and Annexin V negative and PI positive (Q1, necrosis).

[6] = system: HCT-116 human colon cancer cell line; assay: MTT viability assay, HCT-116; assay type: cell-based; settings: Homo sapiens, HCT-116, 72 h, mean ± SD of three independent experiments, read-out: Antiproliferative Activities IC50, HCT-116
Protocol: as §1, §2

[7] = system: HL-60 human leukemia cancer cell line; assay: MTT viability assay, HL-60; assay type: cell-based; settings: Homo sapiens, HL-60, 72 h, mean ± SD of three independent experiments, read-out: Antiproliferative Activities IC50, HL-60
Protocol: as §1, §2

bovine brain tubulin = assay: Tubulin polymerization assay (turbidimetric, kit BK006); assay type: biochemical; settings: read-out: Anti-Tubulin Activity IC50 ± SD (inhibition of tubulin polymerization)
Protocol: The assembly of purified bovine tubulin was monitored using a kit, BK006, purchased from Cytoskeleton Inc., (Denver, CO, USA). The assay was carried out in accordance with the manufacturer’s instructions using the standard assay conditions. Briefly, purified ([…]) in a buffer consisting of 80 mM PIPES (pH 6.9), 0.5 mM EGTA, 2 mM MgCl2, 1 mM GTP and 10% glycerol was incubated at 37 °C in the presence of either vehicle (2% (v/v) ddH2O), CA-4, benzotriazole compounds. Light was scattered proportionally to the concentration of polymerized microtubules in the assay. Therefore, the tubulin assembly was monitored turbidimetrically at 340 nm in a Spectramax 340 PC spectrophotometer (Molecular Devices, Sunnyvale, CA, USA). The concentration that inhibits tubulin polymerization by 50% (IC50) was determined using area under the curve (AUC). The AUC of the untreated controls were considered as 100% polymerization. The IC50 value for each compound was computed using GraphPad Prism Software.

With `COc1ccc(/C=C\c2cc(OC)c(OC)c(OC)c2)cc1O` [CA-4, Combretastatin A-4, reference compound] the “Proportion of HL-60 cells in G2/M phase” value (HL-60 cells [1]; 48 h) was 40.1%, the “Proportion of HL-60 cells in G2/M phase” value (HL-60 cells [1]; 72 h) was 46.6% and the IC50 [2] was 0.58 ± 0.02 µM. For the same compound, the IC50 [3] was 13.6 ± 0.65 µM, the “Colchicine Binding % ± SD (inhibition of [3H]colchicine binding), 1 µM Drug” value ([4]; 1 µM drug) was 64% and 64.23 ± 0.9% and the “Colchicine Binding % ± SD (inhibition of [3H]colchicine binding), 5 µM Drug” value ([4]; 5 µM drug) was 85% and 85.63 ± 2%. The “Total fraction of early and late apoptotic cells (Annexin V positive)” value (HL-60 cells [5]; 48 h) was 18.7%, the “Average fraction of Annexin V-staining positive cells (total apoptotic cells)” value (HL-60 cells [5]; 72 h) was 23.7% and the IC50 [6] was 0.24 ± 0.02 µM. The IC50 [7] was 0.77 ± 0.05 µM and the IC50 (bovine brain tubulin) was […].
